Measurements published in US10675267B2, “Methods for detection and eradication of myeloid leukemia stem cells” (priority 2015, dated 2020).
“Also recorded” adds a separate entry of the source.

Test system: AML LSC (CD34+ cells from AML primary samples)
Experiment: SL/M2 stromal co-culture with colony formation (survival) and replating (self-renewal) assays, AML
Format: cell-based, human
Procedure: In hypothesis-driven experiments, the splicing modulatory compound 17S-FD-895 was tested to determine efficacy in altering splicing activity in cell lines, and to evaluate effects on AML LSC survival and self-renewal capacity in humanized bone marrow stromal co-cultures and in PRIMAGRAFT™ AML LSC models. Cell culture experiments were performed using 293T and sAML (MOLM-13) cell lines, and SL and M2 bone marrow stromal cell lines. Animal studies were performed using immunocompromised Rag2−/−γc−/−[20] or NOD/SCID-IL2RG mice (Jackson Laboratory, Bar Harbor, Me.). Primary AML and normal control samples were used in in vitro hematopoietic stem and progenitor assays after bone marrow stromal co-culture and treatment with splicing modulatory compounds (FD-895 or 17S-FD-895) or vehicle control (DMSO). Colony formation potential and self-renewal capacity were assessed by counting colony numbers (survival) after two weeks of growth in semi-solid (methylcellulose) media, and subsequent replating capacity (self-renewal) was assessed after transfer to fresh methylcellulose for an additional two weeks of culture. Three primary AML samples were utilized to establish PRIMAGRAFT™ models in immunocompromised mice, and mice engrafted with cells from two of these models (AML-37 and AML-08) were treated with 17S-FD-895 or vehicle (DMSO) to evaluate changes in AML LSC survival and self-renewal capacity in vivo. Data were collected by flow cytometry and qRT-PCR analysis of CD34-selected human LSC-enriched cells from engrafted mice.
Bone marrow SL/M2 monolayers were established from freshly inactivated (irradiated) cells and then human CD34^+ cells selected from AML primary samples (n=8) and normal controls (CD34^+ cells from cord blood, CB, n=6; or aged bone marrow, n=6) were added. Survival and self-renewal of the CD34+ cells were investigated by methylcellulose-based colony and replating assays. Two SF3B1-targeted splicing modulators, FD-895 or 17S-FD-895, were added at the initiation of co-culture at concentrations ranging from 0.1 to 10 μM.
Mouse bone marrow stromal cell lines (SL and M2 mycoplasma-free authenticated cells obtained from ATCC) expressing human interleukin-3 (IL-3), stem cell factor (SCF) and granulocyte-colony stimulating factor (G-CSF), which support erythroid and myeloid cell expansion and differentiation, were maintained under standard culture conditions, as previously described. Briefly, SL cells were grown in complete medium containing DMEM (Corning), 10% FBS, 1% Glutamax, and 1% penicillin-streptomycin (Life Technologies), while M2 cells were grown in complete medium containing RPMI, 10% FBS, 1% Glutamax, and 1% penicillin-streptomycin (all from Life Technologies). Every four passages, cells were selected by addition of G418 and hygromycin to the culture media for one passage (3-4 days), to maintain human cytokine expression. All cell lines were maintained in T-25 or T-75 culture flasks and were passaged at dilutions of 1:5-1:10 every 2-4 days. Low passage aliquots of cells were thawed every two months to ensure consistency of experiments.
As previously described (Goff et al., 2013), humanized bone marrow SL/M2 monolayers were inactivated (irradiated) and then human CD34^+ cells selected from AML primary samples and normal controls were added for two weeks of co-culture, followed by methylcellulose-based colony and replating assays. FD-895 or 17S-FD-895 were added at the initiation of co-culture, with DMSO as a vehicle control.
Mouse bone marrow stromal cell lines (SL and M2 mycoplasma-free authenticated cells obtained from ATCC) expressing human interleukin-3 (IL-3), stem cell factor (SCF) and granulocyte-colony stimulating factor (G-CSF), which support erythroid and myeloid cell expansion and differentiation (Hogge et al., 1996), were maintained under standard culture conditions, as previously described (Goff et al., 2013). […]

[1] = two weeks SL/M2 co-culture, 0.1-10 μM, versus DMSO

**Q.** Which results are given for CC[C@H](OC)[C@@H](C)[C@H]1O[C@@H]1[C@@H](O)[C@H](C)/C=C/C=C(\C)[C@H]1OC(=O)C[C@H](O)CC[C@@](C)(O)[C@@H](OC(C)=O)/C=C/[C@@H]1C (stereo in doubt) [Formula 17S-FD-895, 17S-FD-895]?
**A.** AML LSC survival compared with FD-895 (1 μM dose, p=0.020): significantly lower; LSC survival and self-renewal, validation cohort (1 μM, separate patient samples, versus normal controls): Reduced AML LSC survival and self-renewal compared to normal controls; AML LSC self-renewal compared with FD-895 (0.1 and 1 μM doses, p=0.001): significantly lower; functional potency compared with FD-895 (LSC assays): greater functional potency than FD-895; therapeutic index (AML LSC versus normal HSPC) (LSC assays, stromal co-culture): favorable therapeutic index; AML LSC self-renewal (colony replating) [1]: dose-dependent reduction; also recorded: reduced AML LSC self-renewal; AML LSC survival (colony formation) [1]: dose-dependent reduction; also recorded: reduced AML LSC survival
